Results taken from ChEMBL document CHEMBL1149026, “Ohioensins and pallidisetins: novel cytotoxic agents from the moss Polytrichum pallidisetum” (1994).
In brackets after ≈: the same amount, converted by molar mass.

What was measured:
Assay type in all cases: functional
Conditions in all cases: read-out: ED50 (the source's name)
RPMI-7951 = assay: Cytotoxicity against human RPMI7951 cells
A549 = assay: Cytotoxicity against human A549 cells
U-251 = assay: Cytotoxicity against human U251 cells
HT-29 = assay: Cytotoxicity against human HT-29 cells

SMILES	EC50 (RPMI-7951) [µg/mL]	EC50 (A549) [µg/mL]	EC50 (U-251) [µg/mL]	EC50 (HT-29) [µg/mL]
COc1cc(OC)c2c3c1-c1c(O)cccc1[C@@H]1Oc4ccccc4[C@@H](C[C@@H]2OC)[C@@H]31 [1,14-DI-O-METHYLDIHYDROOHIOENSIN B]	1 (≈ 2.4 µM)	1 (≈ 2.4 µM)	–	–
COc1cc(OC)c2c3c1-c1c(O)cccc1[C@@H]1Oc4ccccc4[C@@H](C[C@@H]2O)[C@@H]31 [1-O-METHYLDIHYDROOHIOENSIN B]	–	–	0.8 (≈ 1.99 µM)	–
COc1cc(OC)c2c3c1C(=O)C[C@@H]1c4ccccc4O[C@@H](c4cccc(O)c4-2)[C@H]31 [1-O-METHYLOHIOENSIN B]	1 (≈ 2.5 µM)	–	2 (≈ 4.99 µM)	1 (≈ 2.5 µM)
O=C(/C=C/c1ccccc1)c1cc(O)cc2c1CC(c1ccccc1)O2 (stereo not given) [PALLIDISETIN A]	1 (≈ 2.92 µM)	–	1 (≈ 2.92 µM)	–
O=C(/C=C\c1ccccc1)c1cc(O)cc2c1CC(c1ccccc1)O2 (stereo not given) [PALLIDISETIN B]	2 (≈ 5.84 µM)	–	2 (≈ 5.84 µM)	–
